In patent US10125121B2, “FYN kinase inhibitors” (ROTTAPHARM BIOTECH S.R.L., priority 2015, dated 2018):

Columns and labels:
[1] = target: active FYN (human recombinant, 62.7 kDa) (Homo sapiens, UniProt P06241); assay: In vitro kinase assay (Z′-LYTE FRET); type: biochemical; conditions: read-out: IC50(nM) FYN INHIBITION
HCK = HCK (Homo sapiens, UniProt P08631); assay: Kinase selectivity panel by Cerep
FLT-3 = target: T1, FLT-3 (Homo sapiens, UniProt P36888); assay: Kinase selectivity panel by Cerep; conditions: read-out: inhibition of FLT-3
T1 sequence (P36888 27-993): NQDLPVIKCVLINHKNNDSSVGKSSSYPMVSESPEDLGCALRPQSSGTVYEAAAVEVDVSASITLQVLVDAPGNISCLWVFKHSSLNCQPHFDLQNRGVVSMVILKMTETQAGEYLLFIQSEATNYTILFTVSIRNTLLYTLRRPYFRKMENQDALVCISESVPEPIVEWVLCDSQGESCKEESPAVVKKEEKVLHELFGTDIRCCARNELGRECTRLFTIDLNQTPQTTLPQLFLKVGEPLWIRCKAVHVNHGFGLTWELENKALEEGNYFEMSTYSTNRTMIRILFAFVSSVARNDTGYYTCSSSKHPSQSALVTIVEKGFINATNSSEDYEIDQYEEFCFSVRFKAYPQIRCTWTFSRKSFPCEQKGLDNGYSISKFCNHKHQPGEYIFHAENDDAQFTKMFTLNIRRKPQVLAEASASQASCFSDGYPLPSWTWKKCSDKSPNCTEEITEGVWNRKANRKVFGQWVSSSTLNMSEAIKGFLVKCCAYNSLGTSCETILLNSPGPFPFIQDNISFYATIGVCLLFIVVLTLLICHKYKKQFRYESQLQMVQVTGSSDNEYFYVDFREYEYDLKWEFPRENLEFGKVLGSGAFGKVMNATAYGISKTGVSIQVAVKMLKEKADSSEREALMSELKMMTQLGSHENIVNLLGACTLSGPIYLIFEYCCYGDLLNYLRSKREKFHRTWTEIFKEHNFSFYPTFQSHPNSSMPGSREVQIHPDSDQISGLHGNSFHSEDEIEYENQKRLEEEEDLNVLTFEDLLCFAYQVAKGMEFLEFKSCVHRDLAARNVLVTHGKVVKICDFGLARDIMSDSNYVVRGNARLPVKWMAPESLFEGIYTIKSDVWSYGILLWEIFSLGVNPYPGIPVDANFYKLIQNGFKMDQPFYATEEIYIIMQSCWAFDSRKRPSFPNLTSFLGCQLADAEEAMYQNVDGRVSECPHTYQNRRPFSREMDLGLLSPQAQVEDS

[2] = test system: mechanical hyperalgesia in meniscal tear osteoarthritis; assay: Surgically induced meniscal tear osteoarthritis in the rat (MMT); type: in vivo
Description: Male Sprague Dawley rats (Charles River) approximately 350 g body weight were used. Rats were anesthetized using 2.5% isoflurane in oxygen with a flow rate of 1 I per minute. The right hind leg was shaved and surgically prepared. The medial collateral ligament was exposed and transected. The meniscus was grasped with a hemostat and reflected proximally toward the femur. The meniscus was cut through its full thickness at the narrowest point. The connective tissue layer and the skin were closed with coated Vicryl 8-0 and 4-0 silk sutures, respectively. Sham operated animals underwent an identical procedure with the exception that the medial collateral ligament was exposed but not transected. After a recovery period of 2 weeks, mechanical hyperalgesia was evaluated for the following 4 weeks, once a week, before and 90 minutes after drugs administration. Pharmacological oral treatment was performed for 28 days, starting from 14 days after surgery. After 6 weeks from surgery, rats (ten animals per group) were sacrificed and the ipsilateral knee was removed for histopathological analysis.
The maximum possible effect (MPE %) was calculated by the following formula: 100*(Compound−Vehicle)/(Sham−Vehicle)

[3] = test system: remaining kinases examined (standard panel of about 100 human kinase assay); assay: Kinase selectivity panel by Cerep
FLT-4 = FLT-4 (Homo sapiens, UniProt P35916); assay: Kinase selectivity panel by Cerep; conditions: read-out: inhibition of FLT-4
Chain of FLT-4 (P35916 25-1363): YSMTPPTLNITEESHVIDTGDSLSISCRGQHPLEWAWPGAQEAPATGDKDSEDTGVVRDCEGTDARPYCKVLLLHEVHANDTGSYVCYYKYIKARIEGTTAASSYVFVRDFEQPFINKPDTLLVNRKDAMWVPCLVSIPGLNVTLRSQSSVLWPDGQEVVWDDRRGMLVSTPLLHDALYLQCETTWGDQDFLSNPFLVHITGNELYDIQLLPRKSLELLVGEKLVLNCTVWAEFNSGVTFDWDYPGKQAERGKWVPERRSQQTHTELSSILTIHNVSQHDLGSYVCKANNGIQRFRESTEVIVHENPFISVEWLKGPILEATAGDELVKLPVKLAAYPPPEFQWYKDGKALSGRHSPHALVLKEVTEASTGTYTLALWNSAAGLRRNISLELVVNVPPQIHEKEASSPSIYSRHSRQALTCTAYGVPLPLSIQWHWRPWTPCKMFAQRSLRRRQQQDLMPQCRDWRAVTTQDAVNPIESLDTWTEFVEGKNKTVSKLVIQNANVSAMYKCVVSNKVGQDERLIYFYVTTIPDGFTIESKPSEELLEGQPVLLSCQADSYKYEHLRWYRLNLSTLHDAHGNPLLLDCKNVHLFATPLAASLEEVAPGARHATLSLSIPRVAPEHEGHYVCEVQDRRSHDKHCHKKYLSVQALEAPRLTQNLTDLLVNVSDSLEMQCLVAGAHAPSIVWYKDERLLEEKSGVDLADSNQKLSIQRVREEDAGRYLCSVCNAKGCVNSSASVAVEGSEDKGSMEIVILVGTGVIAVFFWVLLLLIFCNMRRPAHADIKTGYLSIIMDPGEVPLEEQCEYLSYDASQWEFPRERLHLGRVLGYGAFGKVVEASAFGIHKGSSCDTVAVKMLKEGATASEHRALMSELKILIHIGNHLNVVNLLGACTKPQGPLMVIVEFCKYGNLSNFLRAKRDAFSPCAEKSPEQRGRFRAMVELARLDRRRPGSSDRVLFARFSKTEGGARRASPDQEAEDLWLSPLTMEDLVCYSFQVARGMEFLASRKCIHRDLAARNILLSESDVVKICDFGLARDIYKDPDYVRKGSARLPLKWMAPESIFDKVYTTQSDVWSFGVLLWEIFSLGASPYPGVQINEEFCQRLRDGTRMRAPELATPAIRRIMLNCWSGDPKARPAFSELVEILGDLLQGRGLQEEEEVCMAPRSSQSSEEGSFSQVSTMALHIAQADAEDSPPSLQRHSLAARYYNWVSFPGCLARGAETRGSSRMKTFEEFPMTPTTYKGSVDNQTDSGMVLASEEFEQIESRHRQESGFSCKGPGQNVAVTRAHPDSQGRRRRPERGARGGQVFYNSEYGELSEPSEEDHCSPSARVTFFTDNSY

YES = YES (Homo sapiens, UniProt P07947); assay: Kinase selectivity panel by Cerep
Chain of YES (P07947 whole entry): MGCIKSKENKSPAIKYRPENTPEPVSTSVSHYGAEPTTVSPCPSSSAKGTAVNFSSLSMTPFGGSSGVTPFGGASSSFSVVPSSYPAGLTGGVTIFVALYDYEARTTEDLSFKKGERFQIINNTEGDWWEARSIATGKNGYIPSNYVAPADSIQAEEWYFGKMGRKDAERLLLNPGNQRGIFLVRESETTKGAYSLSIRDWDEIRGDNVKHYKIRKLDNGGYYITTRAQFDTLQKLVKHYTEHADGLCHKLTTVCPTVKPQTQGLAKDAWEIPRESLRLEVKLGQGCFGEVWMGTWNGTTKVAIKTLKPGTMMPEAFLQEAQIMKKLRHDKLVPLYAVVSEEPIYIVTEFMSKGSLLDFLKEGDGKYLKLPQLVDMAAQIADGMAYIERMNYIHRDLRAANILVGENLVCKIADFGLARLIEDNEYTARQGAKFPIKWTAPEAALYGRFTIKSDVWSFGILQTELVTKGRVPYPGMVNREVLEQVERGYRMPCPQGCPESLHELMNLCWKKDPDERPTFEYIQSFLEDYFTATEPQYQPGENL

FYN = FYN (Homo sapiens, UniProt P06241); assay: Kinase selectivity panel by Cerep
Chain of FYN (P06241 whole entry): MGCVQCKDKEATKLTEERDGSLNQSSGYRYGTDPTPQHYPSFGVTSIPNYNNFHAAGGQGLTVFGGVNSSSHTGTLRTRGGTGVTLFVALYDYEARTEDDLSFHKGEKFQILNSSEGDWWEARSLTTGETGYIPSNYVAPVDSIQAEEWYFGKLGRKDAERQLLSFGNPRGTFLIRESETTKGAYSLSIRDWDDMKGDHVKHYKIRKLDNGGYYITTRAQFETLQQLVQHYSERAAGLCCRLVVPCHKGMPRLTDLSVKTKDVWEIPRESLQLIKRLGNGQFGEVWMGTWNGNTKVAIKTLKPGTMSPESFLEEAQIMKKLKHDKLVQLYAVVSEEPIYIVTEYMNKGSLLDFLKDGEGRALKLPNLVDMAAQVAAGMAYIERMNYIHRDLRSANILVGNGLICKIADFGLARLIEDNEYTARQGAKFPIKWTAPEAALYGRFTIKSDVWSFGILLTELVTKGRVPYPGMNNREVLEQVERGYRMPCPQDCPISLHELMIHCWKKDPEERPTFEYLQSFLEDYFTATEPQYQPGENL

[4] = 10 mg/kg daily orally, day 21 post surgery
[5] = 10 mg/kg daily orally, day 28 post surgery
[6] = 10 mg/kg daily orally, day 35 post surgery
[7] = 10 mg/kg daily orally, day 42 post surgery
[8] = 30 mg/kg daily orally, day 21 post surgery
[9] = 30 mg/kg daily orally, day 28 post surgery
[10] = 30 mg/kg daily orally, day 35 post surgery
[11] = 30 mg/kg daily orally, day 42 post surgery

Chain of HCK (P08631 whole entry): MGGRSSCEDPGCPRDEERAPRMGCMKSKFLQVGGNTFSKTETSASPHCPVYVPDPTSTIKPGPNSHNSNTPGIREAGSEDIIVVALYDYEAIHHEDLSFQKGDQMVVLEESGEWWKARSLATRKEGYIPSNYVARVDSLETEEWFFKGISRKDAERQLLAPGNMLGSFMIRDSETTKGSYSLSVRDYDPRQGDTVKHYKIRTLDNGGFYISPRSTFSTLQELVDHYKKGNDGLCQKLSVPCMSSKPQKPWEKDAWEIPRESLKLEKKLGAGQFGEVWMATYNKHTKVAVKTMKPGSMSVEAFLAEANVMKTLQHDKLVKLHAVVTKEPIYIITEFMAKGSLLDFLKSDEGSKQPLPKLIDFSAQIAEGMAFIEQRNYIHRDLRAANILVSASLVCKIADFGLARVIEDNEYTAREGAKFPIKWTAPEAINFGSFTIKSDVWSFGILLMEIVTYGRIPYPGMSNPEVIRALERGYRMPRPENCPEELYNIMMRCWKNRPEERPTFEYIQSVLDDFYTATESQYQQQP
Chain of active FYN (human recombinant, 62.7 kDa) (P06241 whole entry): as the sequence (P06241 whole entry) above

O=C(Nc1ccc(CN2CCN(c3nccc(Nc4cc(C5CC5)[nH]n4)n3)CC2)cc1)c1ccccc1C(F)(F)F [Compound 2, N-(4-((4-(4-((5-cyclopropyl-1H-pyrazol-3-yl)amino)pyrimidin-2-yl)piperazin-1-yl)methyl)phenyl)-2-(trifluoromethyl)-benzamide]
IC50 [1]: 9 nM
IC50 (HCK): 3.2 µM
inhibition at 0.1 µM (FLT-3): > 50%
Pain threshold ([2]; 10 mg/kg daily orally, day 14 post surgery): 308 g
Pain threshold [2, 4]: 333 g
Pain threshold: MPE (%) [2, 4]: 30.5%
Pain threshold [2, 5]: 323 g
Pain threshold: MPE (%) [2, 5]: 22.6%
Pain threshold [2, 6]: 313 g
Pain threshold: MPE (%) [2, 6]: 18.2%
Pain threshold [2, 7]: 298 g
Pain threshold: MPE (%) [2, 7]: 21%
Pain threshold ([2]; 30 mg/kg daily orally, day 14 post surgery): 305 g
Pain threshold [2, 8]: 358 g
Pain threshold: MPE (%) [2, 8]: 44%
Pain threshold [2, 9]: 343 g
Pain threshold: MPE (%) [2, 9]: 35.5%
Pain threshold [2, 10]: 335 g
Pain threshold: MPE (%) [2, 10]: 38.2%
Pain threshold [2, 11]: 320 g
Pain threshold: MPE (%) [2, 11]: 43%
effect on more than 70% of the remaining kinases examined [3]: practically ineffective
inhibition at 0.1 µM (FLT-4): > 50%
IC50 (YES): 0.27 µM
IC50 (FYN): 0.009 µM
